Type in all cases: cell-based, human
For assay [1], the system named is T47D cells. The assay can be described thus: Competition co-culture of TurboRFP PSMD2 shRNA and GFP control shRNA T47D cells, FACS/microscopy. Conditions: 1:10 plating ratio, panel of proteasome inhibitors. The procedure:
We created two cell lines—one line that expresses red fluorescent protein (turboRFP) and the doxycycline-inducible PSMD2-targeting shRNA and another line that expresses green fluorescent protein (GFP) and a doxycycline-inducible control shRNA (FIG. 6A). First, we induced shRNA expression with doxycycline for 48 hours. After recovery, we mixed shPSMD2-RFP and shControl-GFP cells at different ratios (either 1:1, 1:2, 1:5 or 1:10), adding the cells with reduced PSMD2 as the minority subpopulation. Twenty-four hours after plating, we treated these mixed populations of cells for 48 hours with increasing concentrations of bortezomib (5, 7.5 or 10 nM). We allowed the cells to recover in the absence of bortezomib and then we quantified the red and green cells by FACS analysis (FIG. 6A) and captured representative images by fluorescence microscopy (FIG. 6B),
The experiment described in Example 10 was repeated with minor differences using a panel of different proteasome inhibitors: MLN2238, MLN9708, and oprozomib T47D cells harboring a doxycycline inducible control shRNA (GFP) or a doxycycline-inducible PSMD2 shRNA (TurboRFP) were incubated with doxycycline for 3 days. Cells were collected, counted, and plated at a 1:10 ratio of TurboRFP-expressing PSMD2 shRNA cells/GFP expression control shRNA cells in the absence of Dox. Proteasome inhibitors were added at the specified concentrations and cells were maintained in culture. Cells were allowed to recover in the absence of the proteasome inhibitor and then analyzed by FACS (FIG. 8B, top) or visualized by microscopy (FIG. 8B, bottom). In the absence of proteasome inhibitors, the initial plating ratio of these cells (1:10) was maintained over the duration of the experiment (FIG. 8B). […]
Visualization and FACS analysis of GFP/RFP levels—cells were trypsinized in 100 μL Accumax® solution and further diluted into 100 μl PBSx1. The number of cells with red or areen fluorescent proteins was measured by MACSQuant® VYB according to manufactures protocol. […]

The subject of assay [2] is T47D cells. The assay is described as follows: The glucose/galactose drug screen. To be noted: for relative viability change of cells grown in glucose versus galactose: 10 mM Glucose or Galactose, Selleck anti cancer and natural product libraries. The procedure: We conducted a second set of drug screens to identify unique sensitivities conferred by the Hi-OXPHOS state using parental T47D breast cancer cells (without 19S subunit suppression). For this screen, we used the NPC and CDL libraries as they contained the greatest number of hits in the Lo19S screen. We tested over 800 compounds at multiple concentrations and measured their effects on relative cell growth/viability when cells were grown under aerobic glycolysis conditions (glucose-supplemented medium) or forced mitochondrial respiration conditions (galactose-supplemented medium).
The glucose/galactose drug screen—T47D cells growing in regular media were collected counted and after centrifugation cells were re-suspended in RPM1 media without glucose containing 10% dialyzed serum with the addition of either 10 mM glucose or 10 mM galactose, Cells were then plated at 1000 cells/well in 384-well opaque, white assay plates (Coming, N.Y.), 50 uL per well, and incubated overnight at 37°C./5% CO2. Application of the drug libraries and cell viability was executed as described above for the Lo19S drug screen.

Assay [3] deals with T47D cells with doxycycline inducible PSMD2 KD (Lo19S) versus control cells. The assay can be described thus: Lo19S T47D drug screen (PSMD2 KD versus control cells, CellTiter-Glo). Conditions: T47D, Lo19S state by dox-inducible PSMD2 shRNA; compound library screen; 72 h; CellTiter-Glo. The procedure:
The effect of each drug on viability of cells was calculated by averaging the duplicate experiments. The data is plotted in FIG. 16 as the log2 of the ratio of viability of PSMD2 KD versus control cells (log2 (shPSMD2/Control)). […] The Selleck natural product library (NPC) comprising 502 compounds in 5 doses and the. NIH bioactive compound library that includes 731 compounds in 4 doses were also screened using the same system.
A deeper understanding of the proteasome inhibitor resistant state could yield insights into the molecular mechanisms activated by cells to cope with proteotoxic stress and elucidate new therapeutic strategies for cancer. With these goals in mind, we screened mechanistically diverse small molecule libraries to identify compound sensitivities altered by the Lo19S and Hi-OXPHOS states. An initial screen was conducted in the isogenic T47D model with transient induction of the Lo19S state as described above, We evaluated >4300 mechanistically well-defined compounds within 4 libraries. The compounds included approved cancer drugs (Selleck anti-cancer library: CDL), common natural products (Natural product library: NPC) and an ^-NIH bioactives library (NIH). Each of these compounds was tested at ≥4 concentrations. (Table S5, data not shown), An additional 2866 compounds from the Boston University's Chemical Methodology and Library Development (CMLD-BU) small molecule collection was screened at a single dose (BULL, see Table S5).
(§1) Generation of the Lo19S T47D cell line—For the generation of the T47D Tet-inducible PSMD2 knockdown cell line—the TRIPZ vector with an inducible shRNA targeting PSMD2 was purchased from Dharmacon (clone V3THS_403760). It was introduced to the T47D cells according to manufactures protocol and cells were selected with puromycin 1 g/ml for one week. The cells were exposed to doxycycline for 24 hours and cells were FACS sorted for the top 10% of most RFP expressing cells (highest expression of shRNA). The cells were further cultured in the absence of doxycycline and PSMD2 knockdown was induced as specified in the text.
After 48 hours the cells were collected counted and plated (in the absence of dox) at 1000 cells/well in 384-well opaque, white assay plates (Coming, NY), 50 uL per well, and incubated overnight at 37° C./5% CO2. Compound stocks from the Cancer drug library containing 349 bioactive compounds that were arrayed in dose 10 nM, 100 nM, 1 uM, 10 uM (Selleck anti-cancer compound library L3000), the natural products library containing 502 compounds that were utilized in 5 doses (dilution of 1:1000 of 2ug/ml, 0.2 ug/ml, 0.002/ug/ml, 0.0002 ug/ml), the NIH bioactive library including 731 drugs in dose of 10 nM, 100 nM, 1 uM, 10 uM and the Boston University's CMLD (Chemical Methodology and Library Development) compound deck containing 2866 compounds in one dose (10 uM), including novel chemotypes that uniquely probe three-dimensional space by employing stereochemical and positional variation within the molecular framework as diversity elements in library design. 50 nl of compounds were pin-transferred (V&P Scientific, CA, pin tool mounted onto Tecan Freedom Evo 150 MCA96 head, Tecan, Calif.) into duplicate assay plates and incubated for 72 h. The DMSO content was 0.1% within each well, Per plate, there are 32 wells of DMSO vehicle control and 32 wells of positive control compounds. After three days of incubation, 10 uL of CellTiter-Glo (Promega, Wis.) was added to each well, incubated for 10 minutes and the luminescence output was read on the M1000 Infinite Pro plate reader (Tecan, Calif.).
On the technique in general: ATP-based viability assays read luminescence as a measure of living cells.

Assay [4] deals with IMR32 (reduced PSMD5) and Kelly neuroblastoma cells. The assay is described as follows: Viability of IMR32 versus Kelly neuroblastoma cells (CellTiter-Glo). To be noted: other experiments, e.g., 0.1 uM.
Assay [5] has the same test system. Described as above. To be noted: 72 hours after addition; CellTiter-Glo. Here is the method: To determine whether these compounds also differentially affect cells with reduced expression of PSDMS, IMR32 and Kelly cells were each cultured in the presence of ABT-263, disulfiram, or elesclomol across a range of concentrations. Cell viability was measured by CellTiter-Glo® Luminescent Cell Viability Assay 72 hours after addition of the compound to cells. The fold viability relative to culture in the absence of the compound was determined for each cell line. […] In the experiment shown in FIG. 24, the lowest lower concentration of ABT-263 and disulfiram tested was 1 uM.
ABT-263 targets several members of the BCL2 family, including BCL2 and BCL-XL.

Assay [6] concerns T47D cells. The assay is described as follows: Drug library screen (Selleck anti-cancer, NPC, NIH bioactive), PSMD2 KD vs control T47D cells. Here is the method: Schematic representation of the drug screen setup. (FIG. 37A) 147D cells harboring a doxycycline-inducible PSMD2 shRNA were grown in the presence or absence of doxycycline for 48 hr. Cells were then collected, washed, and plated in the absence of doxycycline for 24 hr prior to exposure different compounds. Relative cell numbers were measured 3 days later.
The relative viability of the Lo19S versus control cells was calculated for replica experiments and the log2 of the ratio is plotted. […] The relative viability of the respiring cells (Hi-OXPHOS) (gal) versus the control cells (glu) was calculated for replica experiments and the log2 of the ratio is plotted.
After 48 hours the cells were collected, counted, and plated at 1000 cells/well in 384 well plates in duplicates for each cell line. Compounds from the Selleck Chemicals anti-cancer compound library (349 drugs in 4 concentrations; […]) were pinned the next day and viability was measured after 72 hours by the reduction of Resazurin (Ex=530 run, Em=590nin). (See FIG. 37A for schematic of screen.)

Assay [7] has as its system T47D cells. The assay can be described thus: Cell viability, T47D cells with doxycycline-inducible PSMD2 shRNA (KD) vs control. To be noted: T47D, transient PSMD2 reduction. The procedure: FIGS. 37A-37E: Subunit suppression results in highly specific drug sensitivity alteration. Schematic representation of the drug screen setup. (FIG. 37A) 147D cells harboring a doxycycline-inducible PSMD2 shRNA were grown in the presence or absence of doxycycline for 48 hr. Cells were then collected, washed, and plated in the absence of doxycycline for 24 hr prior to exposure different compounds. Relative cell numbers were measured 3 days later. […] (FIGS. 37C-37E) The relative viability of the PSMD2 knockdown (KD) versus the control was calculated for replica experiments and the log2 of the ratio is plotted for 349 compounds from the Selleck anti-cancer L3000 drug library that were tested in 4 concentrations (FIG. 37C), the Selleck natural product library (NPC) comprising 502 compounds in 5 doses (FIG. 37D), and the NIH bioactive compound library that includes 731 compounds in 4 doses (FIG. 37E). Specific compounds are annotated.
The effect of transient PSMD2 reduction on growth of T47D cells in the presence of different proteasome inhibitors (bortezomib, MLN9708, carfilzomib, oprozornib) was tested. T47D cells harboring a doxycycline inducible control shRNA (GFP) or a doxycycline-inducible PSMD2 shRNA (TurhoRFP) were incubated with doxycycline for 3 days. Cells were then split and grown in the absence of Dox and proteasome inhibitors were then added at various concentrations. Cells were maintained in culture and then counted.
as §1, with “For” for “Generation of the Lo19S T47D cell line—For”, “line- the” for “line—the”, “Dhannacon” for “Dharmacon”, “μg/ml” for “g/ml”, “relevant Examples. The TRIPZ control GFP vector was created by removing the turboRFP from the TRIPZ control vector by digestion with Agel and ClaI and replacing it with GFP amplified with primers flanking with Agel and Clal restriction sites.” for “text.”
Cell Viability Assay—Relative cell growth and survival were measured in 96-well microplate format in the shRNA experiments and in 384 well format in the drug toxicity assays, by using the fluorescent detection of resazurin dye reduction as an endpoint (544 nm excitation and 590 run emission). 2,500 cells in 96 wells format or 1,000 cells in 384 well format were plated 24 hours before compound exposure (for 72 hours or indicated time). Each analysis was performed at least with three replicas.

Entries after “also recorded” stand apart in the source; their conditions may differ.

We go through 3 compounds from patent publication US20180353445A1, “METHODS AND COMPOSITIONS RELATING TO PROTEASOME INHIBITOR RESISTANCE” (Whitehead Institute for Biomedical Research, priority 2017, published 2018).

`CC(C)C[C@H](NC(=O)CNC(=O)c1cc(Cl)ccc1Cl)B(O)O` [MLN2238]: the “shift of surviving population toward PSMD2 shRNA cells” value in the assay with T47D cells [1] was “substantially shifted the populations of surviving cells”. Further, the “relative viability change of cells grown in glucose versus galactose” value with T47D cells [2] was “strongest hits in this screen”. Moreover, the “viability of PSMD2 KD versus control cells (log2 (shPSMD2/Control))” value in assay [3] was “selectively reduce viability of control cells versus PSMD2 KD cells”.

In the case of `CCN(CC)C(=S)SSC(=S)N(CC)CC` [disulfiram, tetraethylthiuram disulfide], in the assay on T47D cells [2], the “relative viability change of cells grown in glucose versus galactose” value is “cells that respire are predominantly sensitive; also recorded: preferentially targeted respiring cells; also recorded: more potent in cells in the Hi-OXPHOS state”. Also, the “number of concentrations at which respiring cells were preferentially targeted” value with T47D cells [2] (galactose versus glucose) is 4 concentrations. Also, in assay [4], the “toxicity at lower concentrations than 1 uM” value is “a similar level of toxicity was observed”. The “sensitivity of IMR32 cells relative to Kelly cells (fold viability)” value in assay [5] is “dramatically more sensitive”. Moreover, the “viability of PSMD2 KD versus control cells (log2 (shPSMD2/Control))” value in assay [3] is recorded as “selectively reduce the viability of PSMD2 KD cells versus control cells; also recorded: selectively sensitized cells; also recorded: highly effective in slowing the growth of cells in the Lo19S state”. Also, the “sensitivity of proteasome inhibitor resistant cancer cells vs sensitive counterpart cells” value in the assay with T47D cells [6] is listed as “highly sensitive”. The “growth inhibition of T47D cells with reduced level of PSMD2 vs control T47D cells” value with T47D cells [6] (Selleck anti-cancer compound library screen) is “selectively inhibit growth”.

Turning to `COC[C@H](NC(=O)c1cnc(C)s1)C(=O)N[C@@H](COC)C(=O)N[C@@H](Cc1ccccc1)C(=O)[C@@]1(C)CO1` [oprozomib], the “shift of surviving population toward PSMD2 shRNA cells” value in the assay with T47D cells [1] is “substantially shifted the populations of surviving cells”. Besides, the “resistance of cells harboring PSMD2 shRNA vs parental line (EC50)” value with T47D cells [7] is “EC50 values increased considerably”.
